Positions of bridges follow the written chain, without caps; N, C: chain ends. No end group written: not given here.
System: CD-1 mice
Assay: Complete Freund's adjuvant-induced acute inflammation
Assay type: in vivo, mouse
Procedure: The animal studies were performed under the European Commission’s legislation (Directives 86/609/EEC, 2010/63/EU), the National Standard of the Russian Federation “Good Laboratory Practice” (GOST P 53434-2009, Moscow, Russia), and Committee on Ethics of Laboratory Animal Handling № 05/21, 20 September 2021 and 08/21, 30 December 2021 protocols (PIBOC FEB RAS). Adult female CD-1 mice weighing 25 ± 2 g were subjected to a 12 h light–dark cycle at room temperature and with ad libitum access to food and water. There were seven or eight individuals in each group.
Three groups of animals were treated with peptides at doses of 0.01, 0.1 and 1 mg/kg (intravenously) 30 min before the induction of inflammation. The control animal group received an identical volume of saline. The positive control group received diclofenac (Hemofarm A.D., Vršac, Serbia) at a dose of 1 mg/kg. The edema was induced by a 20 µL injection of complete Freund’s adjuvant (CFA) (MP Biomedicals, Irvine, CA, USA) in the hind paw pad. The resulting edema was measured at 1, 2, 4, 24 and 48 h using a plethysmometer (Ugo Basile, Gemonio (VA), Italy). The anti-inflammatory threshold was estimated as a decrease in the paw volume and volume growth index (%), calculated using the formula: Volume Growth Index (%) = [(VCFA − Vi)/Vi] × 100, (1), where VCFA is the volume of the paw after the introduction of CFA and Vi is the volume of the paw before the introduction of CFA.

## GTPCDCYGYTGVYWFMLSRCPSGYGYNLSCHYFMGICCVKR (disulfide 4-37, 6-30, 20-38 (inferred)) [Hmg 1b-4]
1 mg/kg i.v.
  decrease in paw volume and growth index of edema: more than 1.5 times
0.01, 0.1 and 1 mg/kg i.v. 30 min before CFA
  anti-inflammatory effect: demonstrated an anti-inflammatory effect at all tested doses
1 and 0.1 mg/kg i.v., diclofenac 1 mg/kg i.v.
  paw edema volume decrease compared with diclofenac: greater than the decreases caused by diclofenac
Comparison with APETx2 and Ugr 9-1 data of ref [34]
  anti-inflammatory effectiveness vs other APETx-like / sea anemone peptides: significantly superior not only to Hmg 1b-2, but also to APETx2 and Ugr 9-1
